Measured values taken from patent publication US20150218212A1, “FLUORINATED EPOXYKETONE-BASED TETRAPEPTIDE COMPOUNDS AND USES THEREOF AS PROTEASOME INHIBITORS” (FLUORINOV PHARMA INC., priority 2012, published 2015).

Columns and labels:
Format in all cases: cell-based, human
SW-620 = assay: NCI screening panel, SW-620 (Colon Cancer)
Method: (§1) Representative compounds of Formula I were screened using the National Cancer Institute (NCI) screening panel, which consists of a panel of human tumor cell lines, representing leukemia, melanoma, and cancers of the lung, colon, ovary, breast, prostate and renal system.
(§2) After 24 h, two plates of each cell line are fixed in situ with TCA, to represent a measurement of the cell population for each cell line at the time of drug addition (Tz). Experimental drugs are solubilised in dimethyl sulfoxide at 400-fold the desired final maximum test concentration and stored frozen prior to use. At the time of drug addition, an aliquot of frozen concentrate is thawed and diluted to twice the desired final maximum test concentration with complete medium containing 50 μg/mL gentamicin. Additional four, 10-fold or ½ log serial dilutions are made to provide a total of five drug concentrations plus control. Aliquots of 100 μl of these different drug dilutions are added to the appropriate microtiter wells already containing 100 μl of medium, resulting in the required final drug concentrations.
(§3) Following drug addition, the plates are incubated for an additional 48 h at 37° C., 5% CO2, 95% air, and 100% relative humidity. For adherent cells, the assay is terminated by the addition of cold TCA (trichloroacetic acid). Cells are fixed in situ by the gentle addition of 50 μl of cold 50% (w/v) TCA (final concentration, 10% TCA) and incubated for 60 minutes at 4° C. The supernatant is discarded, and the plates are washed five times with tap water and air dried. Sulforhodamine B (SRB) solution (100 μl) at 0.4% (w/v) in 1% acetic acid is added to each well, and plates are incubated for 10 minutes at room temperature. After staining, unbound dye is removed by washing five times with 1% acetic acid and the plates are air dried. Bound stain is subsequently solubilised with 10 mM trizma base, and the absorbance is read on an automated plate reader at a wavelength of 515 nm. For suspension cells, the methodology is the same except that the assay is terminated by fixing settled cells at the bottom of the wells by gently adding 50 μl of 80% TCA (final concentration, 16% TCA). Using the seven absorbance measurements [time zero, (Tz), control growth, (C), and test growth in the presence of drug at the five concentration levels (Ti)], the percentage growth is calculated at each of the drug concentrations levels. Percentage growth inhibition is calculated as: [(Ti−Tz)/(C−Tz)]×100 for concentrations for which Ti>/=Tz and [(Ti−Tz)/Tz]×100 for concentrations for which Ti<Tz.
(§4) Three dose response parameters are calculated for each experimental agent. Growth inhibition of 50% (GI50) is calculated from [(Ti−Tz)/(C−Tz)]×100=50, which is the drug concentration resulting in a 50% reduction in the net protein increase (as measured by SRB staining) in control cells during the drug incubation. The drug concentration resulting in total growth inhibition (TGI) is calculated from Ti=Tz. The LC50 (concentration of drug resulting in a 50% reduction in the measured protein at the end of the drug treatment as compared to that at the beginning) indicating a net loss of cells following treatment is calculated from [(Ti−Tz)/Tz]×100=−50. Values are calculated for each of these three parameters if the level of activity is reached. However, if the effect is not reached or is exceeded, the value for that parameter is expressed as greater or less than the maximum or minimum concentration tested.

MOLT-4 = assay: NCI screening panel, MOLT-4 (Leukemia)
Method: as §1, §2, §3, §4

SNB-19 = assay: NCI screening panel, SNB-19 (CNS Cancer)
Method: as §1, §2, §3, §4

NCI-H522 = assay: NCI screening panel, NCI-H522 (Non-Small Cell Lung Cancer)
Method: as §1, §2, §3, §4

K-562 = assay: NCI screening panel, K-562 (Leukemia)
Method: as §1, §2, §3, §4

UACC-257 = assay: NCI screening panel, UACC-257 (Melanoma)
Method: as §1, §2, §3, §4

SK-MEL-28 = assay: NCI screening panel, SK-MEL-28 (Melanoma)
Method: as §1, §2, §3, §4

KM12 = assay: NCI screening panel, KM12 (Colon Cancer)
Method: as §1, §2, §3, §4

CCRF-CEM = assay: NCI screening panel, CCRF-CEM (Leukemia)
Method: as §1, §2, §3, §4

HOP-92 = assay: NCI screening panel, HOP-92 (Non-Small Cell Lung Cancer)
Method: as §1, §2, §3, §4

SMILES | Log10GI50 (SW-620) | Log10LC50 (SW-620) | Log10TGI50 (SW-620) | Log10GI50 (MOLT-4) | Log10TGI50 (MOLT-4) | Log10GI50 (SNB-19) | Log10LC50 (SNB-19) | Log10TGI50 (SNB-19) | Log10GI50 (NCI-H522) | Log10TGI50 (NCI-H522) | Log10GI50 (K-562) | Log10LC50 (K-562) | Log10TGI50 (K-562) | Log10GI50 (UACC-257) | Log10LC50 (UACC-257) | Log10TGI50 (UACC-257) | Log10GI50 (SK-MEL-28) | Log10LC50 (SK-MEL-28) | Log10TGI50 (SK-MEL-28) | Log10GI50 (KM12) | further results
CC(C)C[C@H](NC(=O)[C@H](COC(F)F)NC(=O)CN1CCOCC1)C(=O)N[C@@H](Cc1ccccc1)C(=O)N[C@@H](CC(C)C)C(=O)[C@@]1(C)CO1 [Example 2, (2S)-N-[(1S)-1-benzyl-2-[[(1S)-3-methyl-1-[(2R)-2-methyloxirane-2-carbonyl]butyl]-amino]-2-oxo-ethyl]-2-[[(2S)-3-(difluoromethoxy)-2-[(2-morpholinoacetyl)amino]propanoyl]amino]-4-methyl-pentanamide] | <−8.00 | >−4.00 | −5.92 | <-8.00 | −5.79 | −7.18 | >−4.00 | >−4.00 | <−8.00 | −7.43 | −7.49 | >−4.00 | >−4.00 | −7.23 | −4.58 | −6.43 | −7.50 | −5.23 | −6.71 | −7.85 | Log10LC50 (MOLT-4): >−4.00; Log10LC50 (KM12): −7.01; Log10TGI50 (KM12): −7.43
CC(C)C[C@H](NC(=O)[C@H](COC(F)F)NC(=O)CN1CCOCC1)C(=O)N[C@@H](Cc1ccccc1)C(=O)N[C@@H](Cc1ccccc1)C(=O)[C@@]1(C)CO1 [Example 3, (2S)-N-[(1S)-1-benzyl-2-[[(1S)-1-benzyl-2-[(2R)-2-methyloxiran-2-yl]-2-oxo-ethyl]amino]-2-oxo-ethyl]-2-[[(2S)-3-(difluoromethoxy)-2-[(2-morpholinoacetyl)-amino]propanoyl]amino]-4-methyl-pentan-amide] | <−8.00 | −4.27 | −6.63 | <−8.00 | >−4.00 | −7.66 | >−4.00 | −4.54 | <−8.00 | −7.55 | −7.77 | >−4.00 | >−4.00 | −7.23 | −4.53 | −6.40 | −7.65 | >−4.00 | −6.27 | <−8.00 | Log10GI50 (CCRF-CEM): <−8.00; Log10LC50 (CCRF-CEM): >−4.00; Log10TGI50 (CCRF-CEM): −4.88; Log10LC50 (NCI-H522): −6.18; Log10LC50 (KM12): −7.16; Log10TGI50 (KM12): −7.74
CC(C)C[C@H](NC(=O)[C@H](COC(F)F)NC(=O)CN1CCOCC1)C(=O)N[C@@H](COC(F)F)C(=O)N[C@@H](Cc1ccccc1)C(=O)[C@@]1(C)CO1 [Example 4, (2S)-N-[(1S)-2-[[(1S)-1-benzyl-2-[(2R)-2-methyloxiran-2-yl]-2-oxo-ethyl]amino]-1-(difluoromethoxymethyl)-2-oxo-ethyl]-2-[[(2S)-3-(difluoromethoxy)-2-[(2-mor-pholinoacetyl)amino]propanoyl]amino]-4 methyl-pentanamide] | −7.43 | −4.40 | −5.98 | −7.82 | −7.07 | −7.14 | >−4.00 | >−4.00 | −7.75 | −7.11 | −7.26 | >−4.00 | >−4.00 | −6.71 | −4.14 | −6.11 | −7.35 | −4.79 | −6.62 | −7.70 | Log10GI50 (CCRF-CEM): <−8.00; Log10LC50 (CCRF-CEM): >−4.00; Log10TGI50 (CCRF-CEM): >−4.00; Log10GI50 (HOP-92): −7.59; Log10LC50 (HOP-92): −6.24; Log10TGI50 (HOP-92): −7.15; Log10LC50 (MOLT-4): >−4.00; Log10LC50 (NCI-H522): −6.06; Log10LC50 (KM12): −6.44; Log10TGI50 (KM12): −7.29
